Molecular target: (VIBVN)NAT (arylamine N-acetyltransferase)
Test: DTNB assay of AcCoA-dependent acetylation, absorbance at […] nm
Format: biochemical, Vibrio vulnificus

CCCS(=O)(=O)c1c(S(=O)(=O)CCC)c2ccccn2c1C(=O)N/N=C/c1cc(OC)ccc1O [AG-205-36710025]
IC50: 33.3 µM

— PMC11754874, “Novel inhibitors of the (VIBVN) NAT protein identified through pharmacophore modeling” (Scientific Reports, 2025)
